From patent publication US20200405697A1, “Antitumor Agent” (Taiho Pharmaceutical Co., Ltd, priority 2017, published 2020)

Target: T1, human RNR (histidine tagged human M1 and human M2 proteins) (Homo sapiens, UniProt P23921)
T1 construct: made in house; host or cells: Escherichia coli
T1 sequence (P23921 1-792): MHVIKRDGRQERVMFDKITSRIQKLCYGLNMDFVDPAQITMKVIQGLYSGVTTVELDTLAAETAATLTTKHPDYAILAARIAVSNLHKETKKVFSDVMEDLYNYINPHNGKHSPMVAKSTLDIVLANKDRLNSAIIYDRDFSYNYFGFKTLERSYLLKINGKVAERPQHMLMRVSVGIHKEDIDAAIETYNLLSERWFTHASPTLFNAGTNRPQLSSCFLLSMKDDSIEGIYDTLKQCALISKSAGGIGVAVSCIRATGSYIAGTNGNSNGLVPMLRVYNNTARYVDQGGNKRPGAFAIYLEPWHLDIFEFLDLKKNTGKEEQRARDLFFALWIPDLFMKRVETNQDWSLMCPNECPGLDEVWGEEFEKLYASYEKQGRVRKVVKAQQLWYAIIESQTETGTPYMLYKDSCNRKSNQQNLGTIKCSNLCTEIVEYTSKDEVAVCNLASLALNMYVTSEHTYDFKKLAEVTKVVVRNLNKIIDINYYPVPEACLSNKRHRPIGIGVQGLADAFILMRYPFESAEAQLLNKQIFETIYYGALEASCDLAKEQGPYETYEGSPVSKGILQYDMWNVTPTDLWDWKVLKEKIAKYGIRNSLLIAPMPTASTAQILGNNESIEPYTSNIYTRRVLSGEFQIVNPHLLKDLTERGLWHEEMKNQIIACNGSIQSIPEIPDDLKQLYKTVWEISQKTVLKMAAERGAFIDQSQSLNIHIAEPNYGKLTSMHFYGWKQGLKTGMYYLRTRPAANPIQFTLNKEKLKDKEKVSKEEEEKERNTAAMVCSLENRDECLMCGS
Assay: Human RNR inhibition effect (dCDP formation from CDP)
Assay type: biochemical
Conditions: 10 μM CDP, 37° C. for 30 minutes, read-out: RNR inhibitory activity IC50
How it was run: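 His-tagged human M1 (isoform 1) and N-terminal 59-aa-truncated M2 (isoform 2), E. coli-expressed, Ni-purified, preincubated 20 min with compound (1% DMSO). Reaction with 10 μM CDP, 2 mM ATP, 0.24 mM NADPH, 6 mM DTT, 4 mM Mg acetate, 100 mM KCl, 50 mM HEPES pH 7.2, 30 min at 37° C. dCDP formed quantified by reverse-phase HPLC after heat stop.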

| SMILES | IC50 |
| --- | --- |
| Cc1ccc(F)c([C@@H](C)[C@H](NS(=O)(=O)c2ccc(Cl)cc2C(=O)N(C)C)c2n[nH]c(=O)o2)c1C [Example 246, 5-chloro-2-(N-((1S,2R)-2-(6-fluoro-2,3-dimethylphenyl)-1-(5-oxo-4,5-dihydro-1,3,4-oxadiazol-2-yl)propyl)sulfamoyl)-N,N-dimethylbenzamide] | 500 nM |
| Cc1c(Br)ccc(F)c1[C@@H](C)[C@H](NS(=O)(=O)c1ncc(Cl)cc1C(N)=O)c1n[nH]c(=O)o1 [Example 264, 2-(N-((1S,2R)-2-(3-bromo-6-fluoro-2-methylphenyl)-1-(5-oxo-4,5-dihydro-1,3,4-oxadiazol-2-yl)propyl)sulfamoyl)-5-chloronicotinamide] | 60 nM |
| Cc1ccc(F)c([C@@H](C)[C@H](NS(=O)(=O)c2ccc(Cl)cc2C(=O)O)c2n[nH]c(=O)o2)c1C [Example 210, 5-chloro-2-(N-((1S,2R)-2-(6-fluoro-2,3-dimethylphenyl)-1-(5-oxo-4,5-dihydro-1,3,4-oxadiazol-2-yl)propyl)sulfamoyl)benzoic acid] | 180 nM |
| Cc1ccc(F)c([C@@H](C)[C@H](NS(=O)(=O)c2ccc(Cl)s2)c2n[nH]c(=O)o2)c1C [Example 158, 5-chloro-N-((1S,2R)-2-(6-fluoro-2,3-dimethylphenyl)-1-(5-oxo-4,5-dihydro-1,3,4-oxadiazol-2-yl)propyl)thiophene-2-sulfonamide] | 450 nM |
| Cc1c(Cl)ccc(F)c1[C@@H](C)[C@H](NS(=O)(=O)c1ccc(Cl)c2c1OCCC2(C)N)c1n[nH]c(=O)o1 (mixture of isomers) [Example 328, 4-amino-5-chloro-N-((1S,2R)-2-(3-chloro-6-fluoro-2-methylphenyl)-1-(5-oxo-4,5-dihydro-1,3,4-oxadiazol-2-yl)propyl)-4-methylchroman-8-sulfonamide] | 110 nM |
| Cc1c(Cl)ccc(F)c1[C@@H](C)[C@H](NS(=O)(=O)c1ncc(Br)cc1C(N)=O)c1n[nH]c(=O)o1 [Example 254, 5-bromo-2-(N-((1S,2R)-2-(3-chloro-6-fluoro-2-methylphenyl)-1-(5-oxo-4,5-dihydro-1,3,4-oxadiazol-2-yl)propyl)sulfamoyl)nicotinamide] | 70 nM |
| Cc1ccc(F)c([C@@H](C)[C@H](NS(=O)(=O)c2ccc(Cl)c(C(=O)N3CCOCC3)n2)c2n[nH]c(=O)o2)c1C [Example 113, 5-chloro-N-((1S,2R)-2-(6-fluoro-2,3-dimethylphenyl)-1-(5-oxo-4,5-dihydro-1,3,4-oxadiazol-2-yl)propyl)-6-(moipholine4-carbonyl)pyridine-2-sulfonamide] | 60 nM |
| Cc1ccc(F)c([C@@H](C)[C@H](NS(=O)(=O)c2ccc(Cl)cc2C(=O)NCCO)c2n[nH]c(=O)o2)c1C [Example 248, 5-chloro-2-(N-((1S,2R)-2-(6-fluoro-2,3-dimethylphenyl)-1-(5-oxo-4,5-dihydro-1,3,4-oxadiazol-2-yl)propyl)sulfamoyl)-N-(2-hydroxyethyl)benzamide] | 270 nM |
| [2H]C([2H])([2H])C1(O)CCOc2c(S(=O)(=O)N[C@H](c3n[nH]c(=O)o3)[C@H](C)c3c(F)ccc(Br)c3C)ccc(Cl)c21 (single isomer, unassigned) [Example 226A] | 50 nM |
| Cc1c(Br)ccc(F)c1[C@@H](C)[C@H](NS(=O)(=O)c1ccc(Cl)c2c1OCCC2O)c1n[nH]c(=O)o1 (single isomer, unassigned) [Example 243B] | 100 nM |
| Cc1ccc(F)c([C@@H](C)[C@H](NS(=O)(=O)c2c(Cl)cc(Cl)cc2C(N)=O)c2n[nH]c(=O)o2)c1C [Example 256, 3,5-dichloro-2-(N-((1S,2R)-2-(6-fluoro-2,3-dimethylphenyl)-1-(5-oxo-4,5-dihydro-1,3,4-oxadiazol-2-yl)propyl)sulfamoyl)benzamide] | 420 nM |
| Cc1ccc(F)c([C@@H](C)[C@H](NS(=O)(=O)c2c(F)cc(Cl)cc2C(=O)O)c2n[nH]c(=O)o2)c1C [Example 219, 5-chloro-3-fluoro-2-(N-((1S,2R)-2-(6-fluoro-2,3-dimethylphenyl)-1-(5-oxo-4,5-dihydro-1,3,4-oxadiazol-2-yl)propyl)sulfamoyl)benzoic acid] | 270 nM |
| COc1cc(Cl)ccc1S(=O)(=O)N[C@H](c1n[nH]c(=O)o1)[C@H](C)c1c(F)ccc(-c2cn[nH]c2)c1C [Example 303, 4-chloro-N-((1S,2R)-2-(6-fluoro-2-methyl-3-(1H-pyrazol-4-yl)phenyl)-1-(5-oxo-4,5-dihydro-1,3,4-oxadiazol-2-yl)propyl)-2-methoxybenzensulfonamide] | 160 nM |
| [2H]C([2H])([2H])[C@H](c1c(F)ccc(C)c1C)[C@H](NS(=O)(=O)c1ccc(Cl)cc1C(N)=O)c1n[nH]c(=O)o1 [Example 43, 5-chloro-2-[[(1S,2R)-3,3,3-trideuterio-2-(6-fluoro-2,3-dimethylphenyl)-1-(2-oxo-3H-1,3,4-oxadiazol-5-yl)propyl]sulfamoyl]benzamide] | 80 nM |
| Cc1ccc(F)c([C@@H](C)[C@H](NS(=O)(=O)c2ccc(Cl)c3c2OCCC3N)c2n[nH]c(=O)o2)c1C (stereo partly drawn) [Example 278, 4-amino-5-chloro-N-((1S,2R)-2-(6-fluoro-2,3-dimethylphenyl)-1-(5-oxo-4,5-dihydro-1,3,4-oxadiazol-2-yl)propyl)chroman-8-sulfonamide] | 130 nM |
| Cc1ccc(F)c([C@@H](C)[C@@H](c2n[nH]c(=O)o2)N(C)S(=O)(=O)c2ccc(Cl)cc2C(N)=O)c1C [Example 337, 5-chloro-2-(N-((1S,2R)-2-(6-fluoro-2,3-dimethylphenyl)-1-(5-oxo-4,5-dihydro-1,3,4 oxadiazol-2-yl)propyl)-N-methylsulfamoyl)benzamide] | 80 nM |
| CC#CC(O)(C#CC)c1ccc(C(N)=O)c(S(=O)(=O)N[C@H](c2n[nH]c(=O)o2)[C@H](C)c2c(F)ccc(C)c2C)c1 [Example 199] | 350 nM |
| Cc1ccc(F)c([C@@H](C)[C@H](NS(=O)(=O)c2ccc(C#N)cc2)c2n[nH]c(=O)o2)c1C [Example 341, 4-cyano-N-((1S,2R)-(6-fluoro-2,3-dimethylphenyl)-1-(5-oxo-4,5-dihydro-1,3,4-oxadiazol-2-yl)propyl)benzenesulfonamide] | 410 nM |
| Cc1ccc(F)c([C@@H](C)[C@H](NS(=O)(=O)c2cc(OCC(F)F)ccc2C(N)=O)c2n[nH]c(=O)o2)c1C [Example 263, 4-(2,2-difluoroethoxy)-2-(N-((1S,2R)-2-(6-fluoro-2,3-dimethylphenyl)-1-(5-oxo-4,5-dihydro-1,3,4-oxadiazol-2-yl)propyl)sulfamoyl)benzamide] | 70 nM |
| Cc1ccc(F)c([C@@H](C)[C@H](NS(=O)(=O)c2c(F)cc(F)c3c2OCCC3O)c2n[nH]c(=O)o2)c1C (stereo partly drawn) [Example 242, 5,7-difluoro-N-((1S,2R)-2-(6-fluoro-2,3-dimethylphenyl)-1-(5-oxo-4,5-dihydro-1,3,4-oxadiazol-2-yl)propyl)-4-hydroxychroman-8-sulfonamide] | 230 nM |
| Cc1ccc(F)c([C@@H](C)[C@H](NS(=O)(=O)c2ccc(Cl)c3c2OCC(=O)N3C)c2n[nH]c(=O)o2)c1C [Example 93, 5-chloro-N-((1S,2R)-2-(6-fluoro-2,3-dimethylphenyl)-1-(5-oxo-4,5-dihydro-1,3,4-oxadiazol-2-yl)propyl)-4-methyl-3-oxo-3,4-dihydro-2H-benzo[b][1,4]oxazine-8-sulfonamide] | 100 nM |
| Cc1cccc([C@@H](C)[C@H](NS(=O)(=O)c2ccc(Br)cc2C(N)=O)c2n[nH]c(=O)o2)c1C [Example 4, 5-bromo-2-(N-((1S,2R)-2-(2,3-dimethylphenyl)-1-(5-oxo-4,5-dihydro-1,3,4-oxadiazol-2-yl)propyl)sulfamoyl)benzamide] | 380 nM |
| Cc1ccc(F)c([C@@H](C)[C@H](NS(=O)(=O)c2ccc(Cl)c3cccnc23)c2n[nH]c(=O)o2)c1C [Example 153, 5-chloro-N-((1S,2R)-2-(6-fluoro-2,3-dimethylphenyl)-1-(5-oxo-4,5-dihydro-1,3,4-oxadiazol-2-yl)propyl)quinoline-8-sulfonamide] | 110 nM |
| COc1cc(Cl)ccc1S(=O)(=O)N[C@H](c1n[nH]c(=O)o1)[C@H](C)c1c(F)ccc(-c2ccc(Cl)cc2)c1C [Example 302, 4-chloro-N-((1S,2R)-2-(4′-chloro-4-fluoro-2-methyl-[1,1′-biphenyl]-3-yl)-1-(5-oxo-4,5-dihydro-1,3,4-oxadiazol-2-yl)propyl)-2-methoxybenzenesulfonamide] | 490 nM |
| CC(O)c1nc(S(=O)(=O)N[C@H](c2n[nH]c(=O)o2)[C@H](C)c2cccc3c2CCC3)ccc1Cl (stereo partly drawn) [Example 202, 5-chloro-N-((1S,2R)-2-(2,3-dihydro-1H-inden-4-yl)-1-(5-oxo-4,5-dihydro-1,3,4-oxadiazol-2-yl)propyl)-6-(1-hydroxyethyl)pyridine-2-sulfonamide] | 400 nM |
